Assay results: ChEMBL document CHEMBL3232866, “Design of novel potent antihyperlipidemic agents with antioxidant/anti-inflammatory properties: exploiting phenothiazine's strong antioxidant activity” (J Med Chem, 2014)
pIC50: −log10 of the molar value. Activity calls are given as the source filed them. The rule behind the calls is not given here.

Key:
Rattus norvegicus [1] = experiment: In vivo antidyslipidemic activity against Triton WR 1339-induced hyperlipidemic Wistar rat model assessed as decrease in triglyceride level in plasma at 56 umol/kg, ip administered as single dose 1 hr after Triton WR 1339 challenge measured after 24 hrs; type: functional
[2] = Antioxidant activity in rat liver microsome membrane assessed as inhibition of lipid peroxidation after 45 mins by TBARS-based spectrophotometric assay; type: functional, microsomes
[3] = test system: Radical scavenging activity; experiment: Antioxidant activity assessed as DPPH radical scavenging activity after 30 mins; type: functional
Rattus norvegicus [4] = experiment: In vivo antidyslipidemic activity against Triton WR 1339-induced hyperlipidemic Wistar rat model assessed as decrease in total cholesterol level in plasma at 56 umol/kg, ip administered as single dose 1 hr after Triton WR 1339 challenge measured after 24 hrs; type: functional
Rattus norvegicus [5] = experiment: In vivo antidyslipidemic activity against Triton WR 1339-induced hyperlipidemic Wistar rat model assessed as decrease in LDL-cholesterol level in plasma at 56 umol/kg, ip administered as single dose 1 hr after Triton WR 1339 challenge measured after 24 hrs; type: functional
[6] = target: T1, Prostaglandin G/H synthase 1 (Bos taurus) (UniProt O62664); experiment: Inhibition of bovine COX-1 assessed as PGF2-alpha formation using arachidonic acid as substrate at 20 uM by enzyme immunoassay
T1 sequence (whole entry): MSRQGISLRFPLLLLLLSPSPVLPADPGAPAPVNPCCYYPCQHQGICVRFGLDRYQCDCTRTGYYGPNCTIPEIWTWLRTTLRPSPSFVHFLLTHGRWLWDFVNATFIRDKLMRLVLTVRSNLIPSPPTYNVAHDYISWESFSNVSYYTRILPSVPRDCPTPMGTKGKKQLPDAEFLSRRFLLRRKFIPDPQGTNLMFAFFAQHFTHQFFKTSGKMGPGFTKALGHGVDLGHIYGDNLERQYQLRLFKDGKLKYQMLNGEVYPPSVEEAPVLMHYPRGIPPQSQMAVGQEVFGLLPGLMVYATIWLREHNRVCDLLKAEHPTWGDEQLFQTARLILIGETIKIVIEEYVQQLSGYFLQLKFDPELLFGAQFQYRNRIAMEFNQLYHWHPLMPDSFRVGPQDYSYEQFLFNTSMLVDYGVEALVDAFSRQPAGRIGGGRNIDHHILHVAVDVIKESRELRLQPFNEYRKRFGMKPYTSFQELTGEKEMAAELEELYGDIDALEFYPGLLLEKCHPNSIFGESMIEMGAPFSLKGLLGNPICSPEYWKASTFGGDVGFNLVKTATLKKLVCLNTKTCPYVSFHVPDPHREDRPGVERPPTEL

[7] = test system: Radical scavenging activity; experiment: Antioxidant activity assessed as DPPH radical scavenging activity up to 50 uM measured within 15 mins; type: functional
[8] = target: T2, Squalene synthase (Rattus norvegicus) (UniProt Q02769); experiment: (§1) Inhibition of squalene synthase in rat liver microsomes assessed as decrease in conversion of [3H]FPP to squalene
T2 sequence (whole entry): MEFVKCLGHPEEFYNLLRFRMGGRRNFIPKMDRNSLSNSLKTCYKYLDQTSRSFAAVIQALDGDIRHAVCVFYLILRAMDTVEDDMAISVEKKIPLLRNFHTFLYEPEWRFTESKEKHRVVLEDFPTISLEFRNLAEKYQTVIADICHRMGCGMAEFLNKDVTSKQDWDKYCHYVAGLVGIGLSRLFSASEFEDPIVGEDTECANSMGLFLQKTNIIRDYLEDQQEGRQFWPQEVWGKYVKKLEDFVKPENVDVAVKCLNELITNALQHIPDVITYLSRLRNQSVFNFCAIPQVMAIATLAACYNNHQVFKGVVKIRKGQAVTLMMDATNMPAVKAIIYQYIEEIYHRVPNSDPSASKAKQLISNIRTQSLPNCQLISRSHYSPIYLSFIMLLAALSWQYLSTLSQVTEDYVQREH

Squalene synthase = target: T3, Squalene synthase (Rattus norvegicus, UniProt Q02769); experiment: as §1
T3 sequence (Q02769 whole entry): T2 sequence (whole entry)

Homo sapiens [9] = species on record: Homo sapiens; experiment: Antioxidant activity against CuSO4-induced human LDL oxidation assessed as delta-lag time at 0.25 uM by spectrophotometric analysis; type: functional
Homo sapiens [10] = species on record: Homo sapiens; experiment: Antioxidant activity against CuSO4-induced human LDL oxidation assessed as increase in lag time at 0.50 uM by spectrophotometric analysis; type: functional
Homo sapiens [11] = species on record: Homo sapiens; experiment: Antioxidant activity against CuSO4-induced human LDL oxidation assessed as increase in lag time at 0.25 uM by spectrophotometric analysis; type: functional
Homo sapiens [12] = species on record: Homo sapiens; experiment: Antioxidant activity against CuSO4-induced human LDL oxidation assessed as delta-lag time at 0.50 uM by spectrophotometric analysis; type: functional
Homo sapiens [13] = species on record: Homo sapiens; experiment: Antioxidant activity against CuSO4-induced human LDL oxidation assessed as inhibition of rate of conjugate diene formation at 0.50 uM by spectrophotometric analysis; type: functional
Homo sapiens [14] = species on record: Homo sapiens; experiment: Antioxidant activity against CuSO4-induced human LDL oxidation assessed as prolongation of lag time by spectrophotometric analysis; type: functional
Homo sapiens [15] = species on record: Homo sapiens; experiment: Antioxidant activity against CuSO4-induced human LDL oxidation assessed as increase in lag time at 1 uM by spectrophotometric analysis; type: functional
Homo sapiens [16] = species on record: Homo sapiens; experiment: Antioxidant activity against CuSO4-induced human LDL oxidation assessed as inhibition of rate of conjugate diene formation at 1 uM by spectrophotometric analysis; type: functional
Glycine max = experiment: Inhibition of soybean lipoxygenase using sodium linoleate as substrate up to 100 uM measured for 6 mins
Homo sapiens [17] = species on record: Homo sapiens; experiment: Antioxidant activity against CuSO4-induced human LDL oxidation assessed as inhibition of rate of conjugate diene formation at 0.25 uM by spectrophotometric analysis; type: functional
Homo sapiens [18] = species on record: Homo sapiens; experiment: Antioxidant activity against CuSO4-induced human LDL oxidation assessed as lag time at 0.50 uM by spectrophotometric analysis (reference value: 113 mins); type: functional
Homo sapiens [19] = species on record: Homo sapiens; experiment: Antioxidant activity against CuSO4-induced human LDL oxidation assessed as lag time at 0.25 uM by spectrophotometric analysis (reference value: 113 mins); type: functional
Mus musculus = experiment: In vivo antiinflammatory activity in mouse assessed as decrease in carrageenan-induced paw edema at 0.30 mmol/kg, ip administered immediately after carrageenan injection measured after 3.5 hrs; type: functional
[20] = Inhibition of soybean lipoxygenase using sodium linoleate as substrate measured for 6 mins

Structure (SMILES)	inhibition in vivo at 56 µmol/kg (Rattus norvegicus [1])	pIC50 [2]	pIC50 [3]	inhibition in vivo at 56 µmol/kg (Rattus norvegicus [4])	inhibition in vivo at 56 µmol/kg (Rattus norvegicus [5])	inhibition [6]	inhibition [8]	pIC50 (Squalene synthase)	inhibition (Glycine max)	also measured
CN1CC(O)(c2ccc(-c3ccccc3)cc2)OC2CCCCC21 (configuration not stated)	49%	3.35	< 3.40	54%	51%					
CN1CC(O)(c2ccc(-c3ccccc3)cc2)Oc2ccccc21 (configuration not stated)	73%	5.05	3.92	62%	74%	36%				
CN1CC(O)(c2ccc(-c3ccccc3)cc2)Sc2ccccc21 (configuration not stated)	38%	4.08	3.57	58%	26%	90%				
CN1CC(O)(c2ccc3c(c2)Nc2ccccc2S3)Oc2ccccc21 (configuration not stated)		5.80	3.47				Dose-dependent effect	5.48		Activity [7]: Active
CC1=CSC(O)(c2ccc3c(c2)Nc2ccccc2S3)CN1C=O (configuration not stated)		6.48	3.82					< 4.30		Activity [7]: Active
OC1(c2ccc3c(c2)Nc2ccccc2S3)CN2CCCCC2CO1 (racemic)	63%	6.26	3.74	36%	58%	55%	Dose-dependent effect	5.57	inactive	TIME (Homo sapiens [9]): 0.65 h; Activity (Homo sapiens [10]): 80%; Activity (Homo sapiens [11]): 35%; TIME (Homo sapiens [12]): 1.5 h; inhibition (Homo sapiens [13]): 20%; Activity (Homo sapiens [14]): Dose-dependent effect; Activity (Homo sapiens [15]): 100%; Activity [7]: Active; inhibition (Homo sapiens [16]): 100%; inhibition (Homo sapiens [17]): 0%; TIME (Homo sapiens [18]): 3.38 h; TIME (Homo sapiens [19]): 2.53 h
CN1CCOC(O)(c2ccc3c(c2)N(C)c2ccccc2S3)C1 (racemic)		4.15	< 3.40			17%	Dose-dependent effect	5.44	inactive	
CN1c2ccccc2Sc2ccc(C3(O)CN4CCCCC4CO3)cc21 (racemic)	71%	4.17	< 3.40	55%	26%		Dose-dependent effect	5.64	inactive	
CN1c2ccccc2Sc2ccc(C3(O)CN(C)C4CCCCC4O3)cc21 (racemic)	27%	4.24	< 3.40	26%	34%		Dose-dependent effect	5.33	inactive	
CC(=O)N1c2ccccc2Sc2ccc(C3(O)CN(C)CCO3)cc21 (racemic)	76%	4.44	< 3.40	63%	48%		Dose-dependent effect	4.60	inactive	
CC(=O)N1c2ccccc2Sc2ccc(C3(O)CN4CCCCC4CO3)cc21 (racemic)		4.92	< 3.40				Dose-dependent effect	4.79	inactive	
CC(=O)N1c2ccccc2Sc2ccc(C3(O)CN(C)C4CCCCC4O3)cc21 (racemic)		4.85	< 3.40				Dose-dependent effect	5.80	inactive	
COc1ccc2c(c1)c(CC(=O)O)c(C)n2C(=O)c1ccc(Cl)cc1 [INDOMETHACIN]						100%				inhibition in vivo at 300 µmol/kg (Mus musculus): 54%
COc1ccc2cc([C@H](C)C(=O)O)ccc2c1 [NAPROXEN]						30%				pIC50 [20]: 4.62; inhibition in vivo at 300 µmol/kg (Mus musculus): 51%
CC(C)(Sc1cc(C(C)(C)C)c(O)c(C(C)(C)C)c1)Sc1cc(C(C)(C)C)c(O)c(C(C)(C)C)c1 [PROBUCOL]	11%	< 3.00	3.63	18%	18%					
O=c1c(O)c(-c2ccc(O)c(O)c2)oc2cc(O)cc(O)c12 [QUERCETIN]		4.70	4.02							
CCC(C)(C)C(=O)O[C@H]1C[C@@H](C)C=C2C=C[C@H](C)[C@H](CC[C@@H]3C[C@@H](O)CC(=O)O3)[C@H]21 [SIMVASTATIN]	0%			75%	70%					
